Patent US7923248B2, “Methods for producing microspore derived doubled haploid apiaceae” (NRC, priority 2005, dated 2011)

System: isolated microspores of vegetable fennel (VF-2)
Experiment: Isolated microspore culture of fennel with EBR in the medium (embryo formation)
Assay type: cell-based, fennel (Foeniculum vulgare)
Settings: FIG. 5
Experimental: FIG. 5. Effect of 24-Epibrassinolide on microspore embryogenesis of vegetable fennel (VF-2). A=NLN-25; B=NLN-25+0.1 mM EBR; C=NLN-25+1.0 mM EBR; D=NLN-25 changed to NLN-10; E=NLN-25+0.1 mM EBR changed to NLN-10; and F=NLN-25+1.0 mM EBR changed to NLN-10.
Several basal media were compared for fennel microspore embryogenesis. Donor plants for microspore culture were grown as described herein. Flower buds were measured and buds in the range of 1-3 mm were put into Lipshaw baskets. The Lipshaw baskets were immersed for one minute in 70% ethanol in a sterile beaker and placed on a shaker. After one minute, the ethanol was removed and the baskets containing the buds were rinsed with sterile water. The Lipshaw baskets were immersed for 15 min in 6% sodium hypochlorite in a sterile beaker placed on a shaker. After 15 min, the sodium hypochlorite was removed by three 5-min washes with sterile water. The buds were removed from the Lipshaw baskets with sterile forceps and placed in a mortar with 5 mL of half-strength Gamborg B5 medium with 13% sucrose. The buds were gently crushed with a pestle, and the resulting suspension was filtered through a 44 μm nylon screen cloth into a 50 mL sterile centrifuge tube. The mortar and filter were rinsed three times with 5 mL of half-strength B5-13 which was filtered and added to the suspension to a total of 20 mL. […]

CC(C)[C@@H](C)[C@@H](O)[C@H](O)[C@@H](C)[C@H]1CC[C@H]2[C@@H]3COC(=O)[C@H]4C[C@H](O)[C@H](O)C[C@]4(C)[C@H]3CC[C@]12C [24 EBR, 24-epibrassinolide]
fennel embryo formation (microspore embryogenesis) (continued exposure to EBR, NLN-25 medium, 32° C. for 3 days then 24° C.): somewhat inhibitory | fennel embryo formation (microspore embryogenesis) (media change after 72 h to a lower sucrose concentration and removal of the EBR): stimulatory
